Reference: patent publication US20060166905A1, “Aivlosin for the treatment of disease due to brachyspira pilosicoli or ornithobacterium rhinotracheale” (ECO Animal Health, LTD., priority 2003, published 2006)
≈ marks a conversion by molar mass, not a printed value. Where two headings read alike, the source gives them in different places.

How the values were obtained:
Format in all cases: cell-based
[1] = tested on: Ornithobacterium rhinotracheale; test: MIC test, twofold dilution in serum broth; settings: for MIC: Ornithobacterium rhinotracheale, read-out: concentration that inhibited the growth (MIC)
Method: Testing of Aivlosin and Tilmicosin (Pulmotil) Against Ornithobacterium rhinotracheale Using the MIC (Minimum Inhibitory Concentration) Test
The following antibiotics were each tested against four isolates of Ornithobacterium rhinotracheale (OR):
The antibiotics were tested against the following isolates of OR:
The concentration needed of each antibiotic was calculated according to its active ingredient.
The four freeze dried bacterial isolates of Ornithobacterium rhinotracheale were reconstituted, inoculated into 10 ml serum broth (supplied by OBP, code 655) and incubated at 37° C. for 48 hours. After incubation the optical density (OD) of each culture was read at 540 nm. To verify purity the cultures were plated out onto Blood Tryptose agar plates, incubated at 37° C., using 5 % CO2 conditions, for 48 hours after which the plates were examined for any contaminants.
12 tubes per isolate for each of the antibiotics were placed into a test tube rack. 2 ml serum broth was dispensed into each of the tubes. 2 ml of the antibiotic were then added to the first tube in the respective row and a twofold dilution were made (32 μg/ml-0.0625 μg/ml). 20 μl of the bacteria was then added to 11 of the tubes. The 12th tube, i.e. negative control received neither antibiotic nor bacteria. The 11th tube i.e. positive control only received 20 μl bacteria. All the tubes were then incubated at 37° C. and the MIC read after 48 hours incubation

[2] = tested on: Brachyspira pilosicoli; test: MIC of aivlosin by antibiotic dilution method in agar plates
Method: Determination of Minimum Inhibitory Concentration (MIC) of Aivlosin Against Brachyspira pilosicoli
(§1) The MIC of acetyl isovaleryltylosin was determined against 5 field strains of Brachyspira pilosicoli isolated from different pig populations in various parts of England using an antibiotic dilution method. Four replicates of 0.2 ml of each isolate were inoculated into agar plates prepared with antibiotic concentrations from 0.78 to 200 μg/ml. A strain of Brachyspira hyodysenteriae (P18A), for which the MIC for acetyl isovaleryltylosin was already known, was used as a control.

[3] = tested on: Brachyspira hyodysenteriae (P18A); test: MIC by antibiotic dilution method in agar plates, control strain; settings: Control P1 8A
Method: as §1

[4] = even at relatively low concentrations

| MIC ([1]; the fourth isolate) [µg/mL] | MIC ([1]; three of the isolates tested) [µg/mL] | SMILES | preventing the growth of Brachyspira pilosicoli [2, 4] | MIC ([2]; field strain 0P0204-10-97(4)) [µg/mL] | MIC ([2]; field strain P0098-10-97) [µg/mL] | MIC ([2]; field strain P0352-10-98) [µg/mL] | MIC ([2]; field strain P0525-01-98) [µg/mL] | MIC ([2]; field strain P0730-09-97) [µg/mL] | MIC range ([2]; field strains, with the exception of isolate P0204-10-97 (4)) [µg/mL] | MIC [3] [µg/mL] | preventing the growth of Ornithobacterium rhinotracheale [1, 4] | concentration that inhibited the growth (MIC) ([1]; the isolates tested (four)) [µg/mL] |
| --- | --- | --- | --- | --- | --- | --- | --- | --- | --- | --- | --- | --- |
| 8 (≈ 9.2 µM) | 4 (≈ 4.6 µM) | CC[C@H]1OC(=O)C[C@@H](O)[C@H](C)[C@@H](O[C@@H]2O[C@H](C)[C@@H](O)[C@H](N(C)C)[C@H]2O)[C@@H](CCN2C[C@H](C)C[C@H](C)C2)C[C@@H](C)C(=O)/C=C/C(C)=C/[C@@H]1CO[C@@H]1O[C@H](C)[C@@H](O)[C@@H](OC)[C@H]1OC [Pulmotil, Tilmicosin] | – | – | – | – | – | – | – | – | – | – |
| – | – | CCC1OC(=O)CC(OC(C)=O)C(C)C(OC2OC(C)C(OC3CC(C)(O)C(OC(=O)CC(C)C)C(C)O3)C(N(C)C)C2O)C(CC=O)CC(C)C(=O)C=CC(C)=CC1COC1OC(C)C(O)C(OC)C1OC (stereo not drawn) [Aivlosin, 3-O-acetyl-4″-O-isovaleryl-tylosin] | particularly effective | <0.781 | 25.0 | 6.25 | 6.25 | 12.5 | 6.25 to 25.0 | 12.5 (≈ 12 µM) | particularly effective | 0.5 |
